Results: US6548307B2, “Determination of logP coefficients via a RP-HPLC column” (Pfizer Inc., priority 2000, dated 2003)

Test: not given
Settings: Shake-flask data from literature references; cited from earlier work

SMILES | logPoct
Oc1cc(Cl)cc(Cl)c1 [3,5-Dichlorophenol] | 3.68
Brc1cnc2ccccc2c1 [3-Bromoquinoline] | 3.03
Oc1ncnc2[nH]ncc12 [Allopurinol] | −0.55
c1ccc(-c2ccc(C(c3ccccc3)n3ccnc3)cc2)cc1 (centres unmarked) [Bifonazole] | 4.77
O=C1CN=C(c2ccccn2)c2cc(Br)ccc2N1 [Bromazepam] | 1.65
NC(=O)N1c2ccccc2C=Cc2ccccc21 [Carbamazepine] | 2.19
C[C@@H]1C[C@H]2[C@@H]3CCC4=CC(=O)C=C[C@]4(C)[C@@]3(F)[C@@H](O)C[C@]2(C)[C@@]1(O)C(=O)CO [Dexamethasone] | 1.83
CC/C(=C(/CC)c1ccc(O)cc1)c1ccc(O)cc1 [Diethylstilbestrol] | 5.07
COC1=CC(=O)C[C@@H](C)[C@]12Oc1c(Cl)c(OC)cc(OC)c1C2=O [Griseofulvin] | 2.18
CN1C(=O)C(O)N=C(c2ccccc2Cl)c2cc(Cl)ccc21 (centres unmarked) [Lormetazepam] | 2.72
Cc1ncc([N+](=O)[O-])n1CCO [Metronidazole] | −0.02
NC(=O)N/N=C/c1ccc([N+](=O)[O-])o1 [Nitrofurazone] | 0.23
CC(=O)CCCCn1c(=O)c2c(ncn2C)n(C)c1=O [Pentoxifylline] | 0.29
C[C@]12CC[C@H]3[C@@H](CCC4=CC(=O)CC[C@@]43C)[C@@H]1CC[C@@H]2O [Testosterone] | 3.29
CS(=O)(=O)c1ccc([C@@H](O)[C@@H](CO)NC(=O)C(Cl)Cl)cc1 [Thiamphenicol] | −0.27

Test: Shake-flask octanol/buffer partition coefficient (logPoct)
Assay type: physicochemical
Settings: Shake-flask data, this work (in-house, octanol/MOPS buffer, overnight shaking)
From the text: The shake-flask logPoct data were taken from the literature or determined in-house, except when data were not available or could not be determined experimentally due to the high lipophilicity of the compound. In such cases a computed value was used. The shake-vial experimental measurements performed in-house were all conducted at least in duplicate, in amber glass vials and, in some cases, with varying ratios of octanol and MOPS buffer, mutually pre-saturated prior to the experiment. Overnight shaking was used. HPLC analysis at different wavelengths, after centrifugation and separation of the phases, was used for the quantitative analysis, using both phases.

SMILES | logPoct
CSc1ncnc2c1ncn2[C@@H]1O[C@H](CO)[C@@H](O)[C@H]1O [Methylthiolnosine] | 0.09
O=[N+]([O-])c1ccc(/C=N/O)o1 [Nifuroxime] | 1.28

Test: physchem
Settings: not given
Procedure: The mobile phase consisted, in all cases, of 20 mM MOPS buffer at pH 7.4, and methanol in varying proportions from 70 to 15% v/v. […] The capacity factors data (k′=(tR−t0)/t0) obtained at various amounts of methanol were then extrapolated to 0% methanol and reported as log k′w, using a linear procedure. […] Injections of pure methanol were used to determine t0, i.e. the dead time, while tR has the usual meaning of the retention time for the analyte.
All the chromatographic runs were performed on a HP-1100 HPLC ChemStation at the ambient temperature. The columns used were Supelcosil LC-ABZ, 5μm, 4.6×50 mm. […] Columns having different silica bond lots were tested to ensure reproducibility. Samples were dissolved in 1:1 methanol/water at a concentration of 10-30 μg/mL. The flow rate was 0.5, 1 or 2 mL/min, depending on the lipophilicity range. Three lipophilicity ranges were established using, in all cases, three points for the extrapolation to k′w, as described in the table below.
The samples were placed in the appropriate range by estimating their lipophilicity via computed values, or by prior experience with a given class. In each case the entire group of samples was run before the column is equilibrated to the next condition, in an automated fashion, and the initial estimation need not be very accurate. The data analysis was automated via in-house software yielding the ElogPoct values, directly from the chromatographic data files.

SMILES | chromatographic logP
Oc1cc(Cl)cc(Cl)c1 [3,5-Dichlorophenol] | 3.91
Brc1cnc2ccccc2c1 [3-Bromoquinoline] | 2.95
CC(=O)Nc1ccc(O)cc1 [Acetaminophen] | 0.11
CC(=O)c1ccccc1 [Acetophenone] | 1.59
c1ccc(-c2ccc(C(c3ccccc3)n3ccnc3)cc2)cc1 (centres unmarked) [Bifonazole] | 4.98
O=C1CN=C(c2ccccn2)c2cc(Br)ccc2N1 [Bromazepam] | 1.39
NC(=O)N1c2ccccc2C=Cc2ccccc21 [Carbamazepine] | 2.02
C[C@@H]1C[C@H]2[C@@H]3CCC4=CC(=O)C=C[C@]4(C)[C@@]3(F)[C@@H](O)C[C@]2(C)[C@@]1(O)C(=O)CO [Dexamethasone] | 2.39
CC/C(=C(/CC)c1ccc(O)cc1)c1ccc(O)cc1 [Diethylstilbestrol] | 4.75
C[C@]12CC[C@@H]3c4ccc(O)cc4CC[C@H]3[C@@H]1CC[C@@H]2O [Estradiol] | 3.84
COC1=CC(=O)C[C@@H](C)[C@]12Oc1c(Cl)c(OC)cc(OC)c1C2=O [Griseofulvin] | 2.59
O=C1Nc2ccc(Cl)cc2C(c2ccccc2Cl)=NC1O (centres unmarked) [Lorazepam] | 2.75
CN1C(=O)C(O)N=C(c2ccccc2Cl)c2cc(Cl)ccc21 (centres unmarked) [Lormetazepam] | 2.8
c1ccc2ccccc2c1 [Naphthalene] | 3.53
O=[N+]([O-])c1ccc(/C=N/O)o1 [Nifuroxime] | 1.36
NC(=O)N/N=C/c1ccc([N+](=O)[O-])o1 [Nitrofurazone] | 0.24
CC(=O)CCCCn1c(=O)c2c(ncn2C)n(C)c1=O [Pentoxifylline] | 0.31
C[C@]12C=CC(=O)C=C1CC[C@@H]1[C@@H]2[C@@H](O)C[C@@]2(C)[C@H]1CC[C@]2(O)C(=O)CO [Prednisolone] | 1.84
c1ccc2ncccc2c1 [Quinoline] | 1.86
Cc1cccc(N(C)C(=S)Oc2ccc3ccccc3c2)c1 [Tolnaftate] | 5.18

Same assay, conditions: Average of at least three determinations on different LC-ABZ columns; 20 mM MOPS pH 7.4/methanol with octanol; extrapolated to 0% methanol

SMILES | log k′2 (capacity factor extrapolated to 0% methanol)
Oc1cc(Cl)cc(Cl)c1 [3,5-Dichlorophenol] | 3.40
Brc1cnc2ccccc2c1 [3-Bromoquinoline] | 2.54
Oc1cccc(Cl)c1 [3-Clorophenol] | 2.49
CC(=O)Nc1ccc(O)cc1 [Acetaminophen] | −0.02
CC(=O)c1ccccc1 [Acetophenone] | 1.31
Oc1ncnc2[nH]ncc12 [Allopurinol] | −0.89
c1ccc(-c2ccc(C(c3ccccc3)n3ccnc3)cc2)cc1 (centres unmarked) [Bifonazole] | 4.37
O=C1CN=C(c2ccccn2)c2cc(Br)ccc2N1 [Bromazepam] | 1.13
NC(=O)N1c2ccccc2C=Cc2ccccc21 [Carbamazepine] | 1.70
CC/C(=C(/CC)c1ccc(O)cc1)c1ccc(O)cc1 [Diethylstilbestrol] | 4.16
COC1=CC(=O)C[C@@H](C)[C@]12Oc1c(Cl)c(OC)cc(OC)c1C2=O [Griseofulvin] | 2.21
CC(=O)OCC(=O)[C@@]1(O)CC[C@H]2[C@@H]3CCC4=CC(=O)CC[C@]4(C)[C@H]3[C@@H](O)C[C@@]21C [Hydrocortisone-21-acetate] | 1.93
O=C1Nc2ccc(Cl)cc2C(c2ccccc2Cl)=NC1O (centres unmarked) [Lorazepam] | 2.36
CN1C(=O)C(O)N=C(c2ccccc2Cl)c2cc(Cl)ccc21 (centres unmarked) [Lormetazepam] | 2.40
CSc1ncnc2c1ncn2[C@@H]1O[C@H](CO)[C@@H](O)[C@H]1O [Methylthiolnosine] | 0.19
Cc1ncc([N+](=O)[O-])n1CCO [Metronidazole] | −0.32
c1ccc2ccccc2c1 [Naphthalene] | 3.06
O=[N+]([O-])c1ccc(/C=N/O)o1 [Nifuroxime] | 1.11
NC(=O)N/N=C/c1ccc([N+](=O)[O-])o1 [Nitrofurazone] | 0.10
CC(=O)CCCCn1c(=O)c2c(ncn2C)n(C)c1=O [Pentoxifylline] | 0.16
C[C@]12C=CC(=O)C=C1CC[C@@H]1[C@@H]2[C@@H](O)C[C@@]2(C)[C@H]1CC[C@]2(O)C(=O)CO [Prednisolone] | 1.54
C[C@]12C=CC(=O)C=C1CC[C@@H]1[C@@H]2C(=O)C[C@@]2(C)[C@H]1CC[C@]2(O)C(=O)CO [Prednisone] | 1.21
c1ccc2ncccc2c1 [Quinoline] | 1.56
C[C@]12CC[C@H]3[C@@H](CCC4=CC(=O)CC[C@@]43C)[C@@H]1CC[C@@H]2O [Testosterone] | 2.74
CS(=O)(=O)c1ccc([C@@H](O)[C@@H](CO)NC(=O)C(Cl)Cl)cc1 [Thiamphenicol] | −0.24
Cc1cccc(N(C)C(=S)Oc2ccc3ccccc3c2)c1 [Tolnaftate] | 4.55

Same assay, conditions: Data from Equation 3 (from log k′w)

SMILES | ElogPoct
CC(=O)OCC(=O)[C@@]1(O)CC[C@H]2[C@@H]3CCC4=CC(=O)CC[C@]4(C)[C@H]3[C@@H](O)C[C@@]21C [Hydrocortisone-21-acetate] | 2.27
CSc1ncnc2c1ncn2[C@@H]1O[C@H](CO)[C@@H](O)[C@H]1O [Methylthiolnosine] | 0.34
C[C@]12CC[C@H]3[C@@H](CCC4=CC(=O)CC[C@@]43C)[C@@H]1CC[C@@H]2O [Testosterone] | 3.17

Same assay, conditions: logPoct minus ElogPoct

SMILES | Residual
Oc1cc(Cl)cc(Cl)c1 [3,5-Dichlorophenol] | −0.23
Brc1cnc2ccccc2c1 [3-Bromoquinoline] | 0.08
Oc1cccc(Cl)c1 [3-Clorophenol] | −0.40
CC(=O)Nc1ccc(O)cc1 [Acetaminophen] | 0.40
CC(=O)c1ccccc1 [Acetophenone] | −0.01
Oc1ncnc2[nH]ncc12 [Allopurinol] | 0.30
c1ccc(-c2ccc(C(c3ccccc3)n3ccnc3)cc2)cc1 (centres unmarked) [Bifonazole] | −0.21
O=C1CN=C(c2ccccn2)c2cc(Br)ccc2N1 [Bromazepam] | 0.26
NC(=O)N1c2ccccc2C=Cc2ccccc21 [Carbamazepine] | 0.17
CC/C(=C(/CC)c1ccc(O)cc1)c1ccc(O)cc1 [Diethylstilbestrol] | 0.32
COC1=CC(=O)C[C@@H](C)[C@]12Oc1c(Cl)c(OC)cc(OC)c1C2=O [Griseofulvin] | −0.41
CC(=O)OCC(=O)[C@@]1(O)CC[C@H]2[C@@H]3CCC4=CC(=O)CC[C@]4(C)[C@H]3[C@@H](O)C[C@@]21C [Hydrocortisone-21-acetate] | −0.08
O=C1Nc2ccc(Cl)cc2C(c2ccccc2Cl)=NC1O (centres unmarked) [Lorazepam] | −0.24
CN1C(=O)C(O)N=C(c2ccccc2Cl)c2cc(Cl)ccc21 (centres unmarked) [Lormetazepam] | −0.08
CSc1ncnc2c1ncn2[C@@H]1O[C@H](CO)[C@@H](O)[C@H]1O [Methylthiolnosine] | −0.25
Cc1ncc([N+](=O)[O-])n1CCO [Metronidazole] | 0.20
c1ccc2ccccc2c1 [Naphthalene] | −0.16
O=[N+]([O-])c1ccc(/C=N/O)o1 [Nifuroxime] | −0.08
NC(=O)N/N=C/c1ccc([N+](=O)[O-])o1 [Nitrofurazone] | −0.01
CC(=O)CCCCn1c(=O)c2c(ncn2C)n(C)c1=O [Pentoxifylline] | −0.02
C[C@]12C=CC(=O)C=C1CC[C@@H]1[C@@H]2[C@@H](O)C[C@@]2(C)[C@H]1CC[C@]2(O)C(=O)CO [Prednisolone] | −0.24
C[C@]12C=CC(=O)C=C1CC[C@@H]1[C@@H]2C(=O)C[C@@]2(C)[C@H]1CC[C@]2(O)C(=O)CO [Prednisone] | −0.02
c1ccc2ncccc2c1 [Quinoline] | 0.17
C[C@]12CC[C@H]3[C@@H](CCC4=CC(=O)CC[C@@]43C)[C@@H]1CC[C@@H]2O [Testosterone] | 0.12
CS(=O)(=O)c1ccc([C@@H](O)[C@@H](CO)NC(=O)C(Cl)Cl)cc1 [Thiamphenicol] | −0.14
Cc1cccc(N(C)C(=S)Oc2ccc3ccccc3c2)c1 [Tolnaftate] | 0.22

Same assay, conditions: pH 7.4

SMILES | ElogPoct
Oc1ncnc2[nH]ncc12 [Allopurinol] | −0.85
Cc1ncc([N+](=O)[O-])n1CCO [Metronidazole] | −0.22
CS(=O)(=O)c1ccc([C@@H](O)[C@@H](CO)NC(=O)C(Cl)Cl)cc1 [Thiamphenicol] | −0.13
